Assay results published in US8026070B2 (priority 2005, dated 2011).
“And” between values parts separate entries of the source, which are not always exact repeats. Equal entries are not always repeated. Where two headings read alike, the source gives them in different places.

System: human recombinant PrP spiked into human plasma

| Structure (SMILES) | Effect on detection of spiked human recombinant prion protein in human plasma | Non-specific binding, optical density at 450 nm | Only Plasma, optical density at 450 nm | Plasma with human recombinant PrP, optical density at 450 nm | Ratio of Signals (ratio of signals from spiked plasma and only plasma samples) | Effect on detection of spiked human recombinant prion protein in human plasma (all concentrations (1, 10, 100 mM) in the sample preparation buffer) |
| --- | --- | --- | --- | --- | --- | --- |
| NCCCCCC(=O)O [ACA, 6-aminohexanoic acid] | enhanced the detection | 0.4665 and 0.4128 and 0.4549 | 0.4036 and 0.4098 and 0.3737 | 0.52 and 0.5723 and 0.6507 | 1.3 and 1.4 and 1.7 |  |
| NC[C@H]1CC[C@H](C(=O)O)CC1 [AMCHA, trans-(aminomethyl)cyclohexanecarboxylic acid] |  |  |  |  | 1.7 and 1.6 and 1.8 | enhanced the detection |
